Results published in US6596709B1, “6-sulphanoyl-3-quinolylphosphonic acid compounds” (Les Laboratoires Servier, priority 2000, dated 2003).
Like-named read-outs stand apart in the source and are kept apart here.

What was measured:
[1] = Journal of Cerebral Blood Flow and Metabolism, 1994, 14, 251-261; cited from earlier work
[2] = Nephrotoxicity of prior-art compounds of EP 0 640 612 found by the Applicant; format: in vivo; conditions: no method given

SMILES | Nephrotoxicity [1] | Nephrotoxicity [2]
NS(=O)(=O)c1cccc2c3c(cc([N+](=O)[O-])c12)=NC(=O)C(=O)N=3 [NBQX, 6-nitro-7-sulphamoyl-benzo[f]quinoxaline-2,3-dione] | nephrotoxicity | –
O=c1[nH]c2cc(Cl)c(Cl)cc2cc1P(=O)(O)O [(6,7-dichloro-2-oxo-1,2-dihydro-3-quinolyl)phosphonic acid] | – | serious problems of nephrotoxicity
